Test results taken from patent publication US8119633B2, “Substituted sulfonamide compounds” (Gruenenthal GmbH, priority 2007, dated 2012).

Experiments:
[1] = biological target: T1, bradykinin receptor 1 (B1R) of the rat (Rattus norvegicus, UniProt P97583); test: Functional study on the bradykinin receptor 1 (B1R), rat: FLIPR Ca2+ influx assay; type: cell-based; conditions: test substance 10 μM; CHO K1 cells transfected with rat B1R; Des-Arg9-bradykinin at EC80; Ca2+ influx (Fluo-4, FLIPR); read-out: B1R antagonism, rat [10 μM] % inhibition
T1 construct: expressed in transfected cells; host or cells: CHO K1 cells
T1 sequence (P97583 1-337): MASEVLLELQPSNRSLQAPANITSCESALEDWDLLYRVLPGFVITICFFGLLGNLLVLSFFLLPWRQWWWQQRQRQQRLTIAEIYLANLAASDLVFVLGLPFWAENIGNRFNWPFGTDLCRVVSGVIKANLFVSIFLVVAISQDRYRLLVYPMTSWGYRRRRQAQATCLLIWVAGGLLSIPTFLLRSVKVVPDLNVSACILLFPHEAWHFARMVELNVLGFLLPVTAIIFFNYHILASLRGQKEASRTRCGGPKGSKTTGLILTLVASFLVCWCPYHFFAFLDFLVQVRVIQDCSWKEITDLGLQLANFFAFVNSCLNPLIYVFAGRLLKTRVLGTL
Method in brief: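 CHO K1 cells stably expressing rat B1R, Fluo-4-loaded, read on FLIPR (ex 488/em 540 nm, peak fluorescence). Test substances added first (agonism vs 10 μM Des-Arg9-bradykinin), then after 10-20 min Des-Arg9-bradykinin at EC80; % inhibition and IC50 from concentration series, n=2-3, N≥2.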

[2] = biological target: T2, human bradykinin receptor 1 (B1R) (Homo sapiens, UniProt P46663); test: Functional study on the bradykinin receptor 1 (B1R), human: FLIPR Ca2+ influx assay; type: cell-based; conditions: test substance 10 μM; CHO K1 cells transfected with human B1R; Lys-Des-Arg9-bradykinin at EC80; Ca2+ influx (Fluo-4, FLIPR); read-out: B1R antagonism, human [10 μM] % inhibition
T2 construct: expressed in transfected cells; host or cells: CHO K1 cells
T2 sequence (P46663 1-353): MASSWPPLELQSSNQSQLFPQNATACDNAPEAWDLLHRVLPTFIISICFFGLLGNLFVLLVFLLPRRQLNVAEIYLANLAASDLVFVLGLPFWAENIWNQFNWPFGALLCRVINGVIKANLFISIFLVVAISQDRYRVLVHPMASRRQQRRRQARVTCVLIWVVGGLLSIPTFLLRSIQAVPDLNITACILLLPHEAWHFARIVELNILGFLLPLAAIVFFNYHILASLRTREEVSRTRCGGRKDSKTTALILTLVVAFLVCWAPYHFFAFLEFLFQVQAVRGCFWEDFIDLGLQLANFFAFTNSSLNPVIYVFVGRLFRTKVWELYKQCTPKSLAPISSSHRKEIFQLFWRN
Method in brief: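 CHO K1 cells stably expressing human B1R were loaded with Fluo-4, and Ca2+ fluorescence was read on FLIPR (ex 488/em 540 nm). Compound was added first (10 μM for % activation against Lys-Des-Arg9-bradykinin ≥0.5 nM). After 10-20 min, Lys-Des-Arg9-bradykinin was added at EC80 for % inhibition; IC50 came from concentration series, n=2-3, N≥2.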

[3] = biological target: T3, human μ-opiate receptor (Homo sapiens, UniProt P35372); test: Affinity for the human μ-opiate receptor ([3H]-naloxone displacement, SPA); conditions: test substance 1 μmol/l; inhibition of specific [3H]-naloxone binding; CHO-K1 receptor membrane preparation; read-out: μ-Opioid receptor [1 μM] % inhibition
T3 construct: purchased PerkinElmer Life Sciences, Zaventem, Belgium RB-HOM; host or cells: CHO-K1 cells (membrane preparation)
T3 sequence (P35372 whole entry): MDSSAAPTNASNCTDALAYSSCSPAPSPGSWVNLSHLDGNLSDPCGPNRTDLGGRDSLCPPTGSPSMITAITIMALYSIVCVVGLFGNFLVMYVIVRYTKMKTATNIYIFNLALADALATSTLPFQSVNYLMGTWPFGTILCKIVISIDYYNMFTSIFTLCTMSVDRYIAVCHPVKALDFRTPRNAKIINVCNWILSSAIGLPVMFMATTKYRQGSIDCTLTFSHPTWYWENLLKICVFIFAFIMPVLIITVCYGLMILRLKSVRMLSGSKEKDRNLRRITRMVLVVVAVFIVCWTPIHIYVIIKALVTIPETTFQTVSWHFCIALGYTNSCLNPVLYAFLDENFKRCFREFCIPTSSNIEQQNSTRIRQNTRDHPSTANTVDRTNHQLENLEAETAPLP
Experimental: Studies of the Effectiveness of the Compounds According to the Invention Method for determining the affinity for the human μ-opiate receptor
The receptor affinity for the human μ-opiate receptor is determined in a homogeneous batch on microtitre plates. To this end, serial dilutions of the substances to be tested are incubated for 90 minutes at room temperature with a receptor membrane preparation (15-40 μg of protein/250 μl of incubation batch) of CHO-K1 cells, which express the human μ-opiate receptor (RB-HOM receptor membrane preparation from PerkinElmer Life Sciences, Zaventem, Belgium), in the presence of 1 nmol/l of the radioactive ligand [^3H]-naloxone (NET719, PerkinElmer Life Sciences, Zaventem, Belgium) and 1 mg of WGA-SPA beads (wheatgerm agglutinin SPA beads from Amersham/Pharmacia, Freiburg, Germany) in a total volume of 250 μl. The incubation buffer used is 50 mmol/l of Tris-HCl supplemented with 0.06 wt. % bovine serum albumin. In order to determine non-specific binding, 100 μmol/l of naloxone is additionally added. When the ninety-minute incubation time has ended, the microtitre plates are centrifuged off for 20 minutes at 1000 g and the radioactivity is measured in a β-counter (Microbeta-Trilux, PerkinElmer Wallac, Freiburg, Germany). The percentage displacement of the radioactive ligand from its binding to the human μ-opiate receptor at a concentration of the test substances of 1 μmol/l is determined and stated as the percentage inhibition of specific binding. On the basis of the percentage displacement by different concentrations of the test substances, IC50 inhibitory concentrations, which effect 50% displacement of the radioactive ligand, are calculated. Ki values for the test substances are obtained by conversion by means of the Cheng-Prusoff equation.

Compound | inhibition at 10 µM [1] | inhibition at 10 µM [2] | inhibition at 1 µM [3]
Cc1cc(S(=O)(=O)N2CCCCC2CCC(=O)N2CCC(C(Cc3ccccc3)N3CCN(C)CC3)CC2)c(C)cc1Cl (stereo not drawn) [Example 118, 3-(1-(4-chloro-2,5-dimethylphenylsulfonyl)piperidin-2-yl)-1-(4-(1-(4-methyl-piperazin-1-yl)-2-phenylethyl)piperidin-1-yl)propan-1-one] | 93% | 101% | 3%
CN(CCCCC(=O)NC1CCC(C(c2ccccc2)N2CCCCC2)CC1)S(=O)(=O)c1c(Cl)cc(Cl)cc1Cl (stereo not drawn) [Example 6, N—(4-(Phenyl(piperidin-1-yl)methyl)cyclohexyl)-5-(2,4,6-trichloro-N-methylphenylsulfonamido)pentanamide] | 41% | 75.1% | 29%
O=C(CC1C(=O)NCCN1S(=O)(=O)c1ccc(Cl)cc1Cl)NCC1CCC(C(CCc2ccccc2)N2CCCC2)CC1 (stereo not drawn) [Example 57, 2-[1-(2,4-dichloro-benzenesulfonyl)-3-oxo-piperazin-2-yl]-N-[4-(3-phenyl-1-pyrrolidin-1-yl-propyl)-cyclohexylmethyl]-acetamide] | 27% | 104% | 25%
O=C(CC1C(=O)NCCN1S(=O)(=O)c1ccc(Cl)cc1Cl)NCC1CCC(C(c2ccccc2)N2CCCC2)CC1 (stereo not drawn) [Example 58, 2-[1-(2,4-dichloro-benzenesulfonyl)-3-oxo-piperazin-2-yl]-N-[4-(phenyl-pyrrolidin-1-yl-methyl)-cyclohexylmethyl]-acetamide] | 11% | 104% | 70%
CN1CCN(C(c2cccc(F)c2)C2CCN(C(=O)CC(NS(=O)(=O)c3ccc4ccccc4c3)c3ccccc3)CC2)CC1 (stereo not drawn) [Example 110, N-(3-(4-((3-fluorophenyl)(4-methylpiperazin-1-yl)methyl)piperidin-1-yl)-3-oxo-1-phenylpropyl)naphthalene-2-sulfonamide] | 100% | 102% | 3%
O=C(CC1C(=O)NCCN1S(=O)(=O)c1ccc(Cl)cc1Cl)NCC1CCC(C(CCc2ccccc2)N2CCOCC2)CC1 (stereo not drawn) [Example 56, 2-[1-(2,4-dichloro-benzenesulfonyl)-3-oxo-piperazin-2-yl]-N-[4-(1-morpholin-4-yl-3-phenyl-propyl)-cyclohexylmethyl]-acetamide] | 20% | 104% | 11%
CN1CCN(C(Cc2ccccc2)C2CCN(C(=O)CC(NS(=O)(=O)c3ccc4ccccc4c3)c3ccccc3)CC2)CC1 (stereo not drawn) [Example 116, N-(3-(4-(1-(4-methylpiperazin-1-yl)-2-phenylethyl)piperidin-1-yl)-3-oxo-1-phenylpropyl)naphthalene-2-sulfonamide] | 93% | 102% | 7%
Cc1cc(S(=O)(=O)N2CCCCC2CCC(=O)N2CCC(C(CCc3ccccc3)N3CCN(C)CC3)CC2)c(C)cc1Cl (stereo not drawn) [Example 119, 3-(1-(4-chloro-2,5-dimethylphenylsulfonyl)piperidin-2-yl)-1-(4-(1-(4-methyl-piperazin-1-yl)-3-phenylpropyl)piperidin-1-yl)propan-1-one] | 97% | 102% | 52%
O=C(CC1CCCCN1S(=O)(=O)c1ccc(Cl)c(Cl)c1)NC1CCC(C(c2ccccc2)N2CCOCC2)CC1 (stereo not drawn) [Example 106, 2-(1-(3,4-dichlorophenylsulfonyl)piperidin-2-yl)-N-(4-(morpholino(phenyl)methyl)cyclohexyl)acetamide] | 19% | 48.3% | 21%
O=C1Nc2ccccc2N(S(=O)(=O)c2ccc(Cl)c(Cl)c2)C1CC(=O)N1CCC(C(Cc2ccccc2)N2CCOCC2)CC1 (stereo not drawn) [Example 72, 4-(3,4-dichlorophenylsulfonyl)-3-(2-(4-(1-morpholino-2-phenylethyl)piperidin-1-yl)-2-oxoethyl)-3,4-dihydroquinoxalin-2(1H)-one] | 30% | 102% | 26%
CN(C)C(c1ccccc1)C1CCC(NC(=O)CCCCN(C)S(=O)(=O)c2c(Cl)cc(Cl)cc2Cl)CC1 (stereo not drawn) [Example 5, N—(4-((Dimethylamino)(phenyl)methyl)cyclohexyl)-5-(2,4,6-trichloro-N-methylphenylsulfonamido)pentanamide] | 60% | 101% | 89%
O=C(CC1C(=O)Nc2ccccc2N1S(=O)(=O)c1ccc(Cl)c(Cl)c1)NC1CCC(C(c2ccccc2)N2CCCC2)CC1 (stereo not drawn) [Example 103, 2-(1-(3,4-dichlorophenylsulfonyl)-3-oxo-1,2,3,4-tetrahydroquinoxalin-2-yl)-N-(4-(phenyl(pyrrolidin-1-yl)methyl)cyclohexyl)acetamide] | 37% | 103% | 71%
O=C(CC1C(=O)NCCN1S(=O)(=O)c1ccc(Cl)cc1Cl)NC1CCC(C(c2ccccc2)N2CCOCC2)CC1 (stereo not drawn) [Example 101, 2-(1-(2,4-dichlorophenylsulfonyl)-3-oxopiperazin-2-yl)-N-(4-(morpholino(phenyl)methyl)cyclohexyl)acetamide] | 31% | 104% | 4%
O=C(CC1C(=O)Nc2ccccc2N1S(=O)(=O)c1ccc(Cl)c(Cl)c1)NCC1CCC(C(c2ccccc2)N2CCCC2)CC1 (stereo not drawn) [Example 67, 2-[1-(3,4-dichloro-benzenesulfonyl)-3-oxo-1,2,3,4-tetrahydro-quinoxalin-2-yl]-N-[4-(phenyl-pyrrolidin-1-yl-methyl)-cyclohexylmethyl]-acetamide] | 104% | 104% | 64%
O=C(CC1C(=O)Nc2ccccc2N1S(=O)(=O)c1ccc(Cl)c(Cl)c1)NC1CCC(C(CCc2ccccc2)N2CCCCC2)CC1 (stereo not drawn) [Example 68, 2-[1-(3,4-dichloro-benzenesulfonyl)-3-oxo-1,2,3,4-tetrahydro-quinoxalin-2-yl]-N-[4-(3-phenyl-1-piperidin-1-yl-propyl)-cyclohexyl]-acetamide] | 37% | 104% | 30%
O=C(CC1C(=O)NCCN1S(=O)(=O)c1ccc(Cl)cc1Cl)NC1CCC(C(c2ccccc2)N2CCCC2)CC1 (stereo not drawn) [Example 102, 2-(1-(2,4-dichlorophenylsulfonyl)-3-oxopiperazin-2-yl)-N-(4-(phenyl(pyrrolidin-1-yl)methyl)cyclohexyl)acetamide] | 12% | 104% | 35%
O=C(CC1CCCN1S(=O)(=O)c1ccc(Cl)c(Cl)c1)NCC1CCC(C(CCc2ccccc2)N2CCCC2)CC1 (stereo not drawn) [Example 75, 2-[1-(3,4-dichloro-benzenesulfonyl)-pyrrolidin-2-yl]-N-[4-(3-phenyl-1-pyrrolidin-1-yl-propyl)-cyclohexylmethyl]-acetamide] | 2% | 91.7% | 65%
